Reference: publication PMC9452909, “Monomethylsulochrin isolated from biomass extract of Aspergillus sp. against Leishmania amazonensis: In vitro biological evaluation and molecular docking” (Frontiers in Cellular and Infection Microbiology, 2022)
In brackets after ≈: the same amount, converted by molar mass. Read-outs that look alike come from different tables or passages of the source.

What was measured:
[1] = test system: L. infantum intracellular amastigote forms; set-up: method as in Hay et al. (2008); conditions: ref Hay et al. (2008); cited from earlier work
[2] = test system: L. infantum promastigote forms; set-up: method as in Hay et al. (2008); conditions: ref Hay et al. (2008); cited from earlier work
[3] = test system: L. mexicana promastigote forms; set-up: method as in Hay et al. (2008); conditions: ref Hay et al. (2008); cited from earlier work
Cytotoxicity assay (MTT) = type: cell-based; conditions: mouse
Protocol: The animals were stimulated by intraperitoneal inoculation of 3.0 ml of sodium thioglycolate at 3.0%. After 72 h of elicitation, the animals were euthanized with 10% ketamine (Syntec, São Paulo, BRA) and 2% xylazine (Syntec, São Paulo, BRA) according to the weight of each animal and, after death, the animal’s skin was retracted by incision and subsequent divulsion for peritoneum exposure. A total of 10.0 ml of sterile pH 7.2 phosphate-buffered saline (PBS) was inoculated, and a light manual massage was performed. The cells were then harvested from the peritoneum and dispensed in a sterile conical tube. The peritoneal lavage was centrifuged at 380g for 5 min, and cells were suspended in culture medium (RPMI 1640 medium supplemented with 10% FBS, penicillin [100 U/ml], and [100 μg/ml] streptomycin) and incubated at 37°C, 5% CO2 overnight ([Almeida-Souza et al., 2018]).
Wells without cells were used as blank, and wells with cells and 1% DMSO were used as control. After 24-h incubation period, cell viability was assessed by MTT. The cytotoxicity of 50% (CC50) was calculated following the method described elsewhere by [Oliveira et al. (2018)]. The selectivity index (SI) was obtained from the ratio of peritoneal macrophages CC50 and IC50.

[4] = test system: L. amazonensis promastigote; assay: Antileishmanial activity assay, promastigote forms (live parasite counting); type: cell-based, Leishmania amazonensis; conditions: 24 h; for IC50: Leishmania amazonensis, mean ± SD
Protocol: Promastigote forms of L. amazonensis H21 (MHOM/BR/76/MA-76) were cultured at 26°C in Schneider’s insect medium. The culture was supplemented with 10% FBS, 100 IU/ml of penicillin, and 100 µg/ml of streptomycin in a maximum of 10 in vitro passages ([Almeida-Souza et al., 2016]).
In 96-well plates, the promastigote forms of L. amazonensis (10^6 parasites/ml) from a 3- to 5-day-old culture were incubated for 24 h in the presence of different concentrations of pseurotin A at 7.24–579.5 μM and monomethylsulochrin at 9.0–721.9 μM, in a final volume of 100 µL per well. The viability of parasites was evaluated after treatment by counting the total number of live promastigotes, considering the flagellar motility, using Neubauer’s camera and optical light microscope ([Rottini et al., 2019]). This count was compared with the score of non-treated promastigote growth. This experiment was carried out in independent triplicate with each condition performed in triplicate. The results were expressed as parasite growth inhibitory concentration of 50% (IC50). Wells with medium and without parasites were used as blanks, and wells with parasites only incubated with medium were used as controls. […] Activity against intracellular amastigote was performed in 24-well plates, with coverslips, with peritoneal macrophages cultured (5 × 10^5 cells per well) and infected with promastigote forms of L. amazonensis using a ratio of 10:1 parasites per cell. After 6 h, the cells were washed three times with PBS to remove free parasites. […] For the light microscopy analysis, the coverslips with the infected and treated cells were then fixed with Bouin solution and stained with Giemsa. The IC50 values of all compounds tested were calculated from the total of intracellular amastigote from 100 cells. Parameters of infection analysis were performed according to [Silva-Silva et al. (2021a)].

[5] = test system: L. amazonensis intracellular amastigote; assay: Activity against intracellular amastigote in infected peritoneal macrophages; type: cell-based, Leishmania amazonensis; conditions: 24 h; for IC50: Leishmania amazonensis, Peritoneal macrophage, in Mus musculus, read-out: L. amazonensis Intracellular amastigote IC50
Protocol: The viability of parasites was evaluated after treatment by counting the total number of live promastigotes, considering the flagellar motility, using Neubauer’s camera and optical light microscope ([Rottini et al., 2019]). This count was compared with the score of non-treated promastigote growth. This experiment was carried out in independent triplicate with each condition performed in triplicate. […] Wells with medium and without parasites were used as blanks, and wells with parasites only incubated with medium were used as controls. […] After 6 h, the cells were washed three times with PBS to remove free parasites. […] For the light microscopy analysis, the coverslips with the infected and treated cells were then fixed with Bouin solution and stained with Giemsa. […] Parameters of infection analysis were performed according to [Silva-Silva et al. (2021a)].

[6] = test system: L. amazonensis promastigote forms; assay: Flow cytometry with TMRE, mitochondrial membrane potential; type: cell-based, Leishmania amazonensis; conditions: 24 h, p = 0.0286
Protocol: Heat-killed parasites (60°C bath for 60 min) and untreated parasites were used as positive and negative controls, respectively. After incubation, parasites were centrifuged at 210g for 5 min at room temperature, washed in PBS, incubated with 300 μl of TMRE (50 nM) in the dark for 15 min, at room temperature, and submitted to flow cytometry through CytoFlex flow cytometer (Beckman Coulter Life Sciences, IN, USA). TMRE was excited by 488-nm blue laser, and its fluorescence was collected at 585/42 nm bandpass filter. CytExpert software version 2.1 (Beckman Coulter Life Sciences, IN, USA) was used for flow cytometry analyses ([Mondêgo-Oliveira et al., 2021]).

[7] = test system: L. amazonensis promastigote forms; assay: Transmission electron microscopy, ultrastructural alterations; type: cell-based, Leishmania amazonensis; conditions: 18.04 µM (IC50), 24 h; p = 0.0016, 0.0016, 0.0480, 0.0079
Protocol: The transmission electron microscopy was performed to evaluate if monomethylsulochrin induced any ultrastructural alterations to the L. amazonensis promastigote forms. Parasites were treated with monomethylsulochrin with IC50 for 24 h and fixed with 2.5% glutaraldehyde in sodium cacodylate buff;er (0.1 M, pH 7.2) for overnight, then washed three times with 0.1 M sodium cacodylate buffer and postfixed in a solution containing 1% osmium tetroxide, 0.8% ferrocyanide, and 5 mM calcium chloride. 0.1 M sodium cacodylate buffer was used for washing, before being dehydrated in graded acetone and embedded in EPON 812 resin. Ultrathin sections were stained with 5% uranyl acetate aqueous solution and lead citrate (1.33% lead nitrate and 1.76% sodium citrate) and examined in a JEM-1011 transmission electron microscope (JEOL, Tokyo, Japan) at 80 kV ([Silva-Silva et al., 2021b]). The images acquired were used for quantification of the number of vacuoles and lipid corpuscles and area of vacuoles, lipid corpuscles, and mitochondria, using ImageJ software (NIH). Quantitative analysis was conducted with five untreated parasites and at least 10 treated parasites. The number of vacuoles and lipid corpuscles was expressed as mean ± standard deviation (SD), and the area of vacuoles, lipid corpuscles, and mitochondria were expressed as percentage of each parasite total area.

fungi = test system: fungi; set-up: method as in Zhang et al., 2014; conditions: ref Zhang et al., 2014; cited from earlier work
bacteria = test system: bacteria; set-up: method as in Zhang et al., 2014; conditions: ref Zhang et al., 2014; cited from earlier work
[8] = test system: L. donovani amastigotes, axenically cultured (cell free); set-up: method as in Martińez-Luis et al. (2012); conditions: isolated from endophytic Aspergillus sp. strain F1544; ref Martińez-Luis et al. (2012); cited from earlier work
Leishmania = test system: Leishmania; set-up: method as in Campos et al., 2017; conditions: ref Campos et al., 2017, cited from earlier work
[9] = peritoneal macrophages (thioglycolate-elicited), BALB/c peritoneal macrophages, 24 h, MTT, mean ± SD, read-out: Cytotoxicity CC50

Compound: CC(C)=CCC/C(C)=C/Cc1c(O)cc(O)c(C(=O)c2ccccc2)c1O [3-geranyl-2,4,6-trihydroxybenzophenone]
- IC50 against intracellular amastigote forms of L. infantum [1]: 0.7 µg/mL
- IC50 against promastigote forms of L. infantum [2]: 15 µg/mL
- IC50 against promastigote forms of L. mexicana [3]: 4.05 µg/mL

Compound: C[C@@H]1[C@H](O)[C@@H](C)/C=C/C=C/C=C/C=C/C=C/C=C/C=C/[C@H](O[C@@H]2O[C@H](C)[C@@H](O)[C@H](N)[C@@H]2O)C[C@@H]2O[C@](O)(C[C@@H](O)C[C@@H](O)[C@H](O)CC[C@@H](O)C[C@@H](O)CC(=O)O[C@H]1C)C[C@H](O)[C@H]2C(=O)O [Amphotericin B, amphotericin B, reference compound]
- CC50 at 24 h (Cytotoxicity assay (MTT); BALB/c): 8.45 ± 1.08 µM
- SIpro (selectivity index = CC50 macrophages/IC50 promastigote forms) [4]: 312.96
- Infection parameters (all) ([5]; 3 µM): significant reduction
- SIama (selectivity index = CC50 macrophages/IC50 amastigote forms) [5]: 13.43
- IC50 [5]: 0.629 ± 1.39 µM

Compound: COC(=O)c1cc(O)cc(OC)c1C(=O)c1c(O)cc(C)cc1OC [Monomethylsulochrin, monomethylsulochrin]
- Change in Δψm ([6]; 18.04 µM): significant decrease
- Decrease in the mitochondrial membrane potential ([6]; IC50 concentration): 25.9%
- Ultrastructural changes: number of vacuoles, vacuoles area, lipid corpuscles area, mitochondria area [7]: statistically significant changes
- Antifungal activity (fungi): no antifungal activity
- Antibacterial activity (bacteria): weak antibacterial activity
- CC50 at 24 h (Cytotoxicity assay (MTT); [9]): 91.6 ± 1.28 µM
- SIpro (selectivity index = CC50 macrophages/IC50 promastigote forms) [4]: 5.08
- IC50 [4]: 18 ± 1.11 µM
- Parameters of infection (amastigote number in 100 cells, percentage of infected cells, mean of amastigotes per infected cell) ([5]; 6 µM, p = 0.0082, 0.0033, 0.0041): statistically significant reduction
- SIama (selectivity index = CC50 macrophages/IC50 amastigote forms) [5]: 18.00
- IC50 ([5]; infected BALB/c peritoneal macrophages, mean ± SD): 5.09 ± 1.06 µM

Compound: CC/C=C\[C@H](O)[C@H](O)C1=C(C)C(=O)[C@]2(O1)C(=O)N[C@@](OC)(C(=O)c1ccccc1)[C@@H]2O [Pseurotin A, pseurotin A]
- IC50 against axenically cultured (cell free) L. donovani amastigotes [8]: 5.8 µg/mL (≈ 13.4 µM)
- CC50 at 24 h (Cytotoxicity assay (MTT); [9]): 654.4 ± 1.19 µM
- IC50 [4]: > 500 µM

Compound: anhydrocochlioquinone A [anhydrocochlioquinone A (ANDC-A)]
- Leishmanicidal activity EC50 (Leishmania): 22.4 µg/mL
- EC50 (Leishmania; read-out: Leishmanicidal activity EC50): 44 µM
